Measurements from patent US20220204497A1, “NOVEL COMPOUND HAVING ANTICANCER ACTIVITY, AND METHOD FOR PRODUCING SAME” (MEDICINAL BIOCONVERGENCE RESEARCH CENTER, priority 2019, published 2022).

Key:
H460 cells [1] = test: In vivo cancer growth inhibition in H460 xenograft animal model; design: species or system BALB/cAnCr female rats; details: 50 mg/kg intraperitoneally once every 2 days, 16 days
Description: FIG. 4 is a result of testing the cancer cell growth inhibitory effect of compound No. 55 and compound No. 89 among the compounds of the Formula 1 according to the present invention and the tumor distribution of the drug in the H460 xenograft animal model. Taxol was used as a positive control.
H460 cells (2×10^7) were subcutaneously implanted in 7-week-old BALB/cAnCr female […], and then Compound No. 55 or Compound No. 89 (50 mg/kg) and Taxol (10 mg/kg) were administered intraperitoneally once every 2 days. The drug was administered for 16 days, and the size of the tumor and the weight of the animal were measured during administration. After 16 days, the animals were sacrificed and the size and weight of the removed tumors were measured.

AIMP2-DX2 = molecular target: T1, AIMP2-DX2 (Homo sapiens, UniProt Q13155); test: DX2-nanoluciferase assay (DX2 expression change) in transfected A549 cells; details: A549, 4 h, read-out: DX-Nanoluciferase activity (40 μM), 40 μM, 4 hours treatment, A549 cells transfected with nanoluciferase-DX2; inhibitory effect on AIMP2-DX2 expression
T1 sequence (Q13155 1-251 isoform Q13155-2): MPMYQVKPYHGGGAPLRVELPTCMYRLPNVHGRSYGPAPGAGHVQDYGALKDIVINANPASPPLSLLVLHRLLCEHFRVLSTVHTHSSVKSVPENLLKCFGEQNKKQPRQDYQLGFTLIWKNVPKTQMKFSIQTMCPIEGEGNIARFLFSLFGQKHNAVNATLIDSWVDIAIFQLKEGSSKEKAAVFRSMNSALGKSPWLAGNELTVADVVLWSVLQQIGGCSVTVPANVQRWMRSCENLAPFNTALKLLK
Description: After cloning DX2 into a plasmid expressing nanoluciferase, the plasmid was transfected into A549 cells. Transfected cells were seeded 1×10^4 per well in a 96-well plate and stabilized for 12 hours. […] Cell viability was measured by the MTT method after 72 hours of treatment with each concentration of the compound in A549 cells.

A549 cells = test: Cell viability by MTT method in A549 cells; format: cell-based; design: concentration or dose not given beside the values; details: 72 hours treatment
H460 cells [2] = test: In vivo anti-cancer efficacy in mice transplanted with H460 cells; design: species or system mouse; details: 50 mg/kg intraperitoneally once every two days, 15 days
Description: FIGS. 3a to 3d are the results of observing the tumor growth while administering compound No. 63 (50 mg/kg) once every two days intraperitoneally for a total of 15 days to a mouse transplanted with H460 cells. (FIG. 3a: macroscopic observation of each mouse and tumor after the end of administration, FIG. 3b: tumor growth curve over time, FIG. 3c: the weight of each tumor obtained at the end of administration, FIG. 3d: change in body weight of animals during administration period).
Next, the anti-cancer efficacy of compound No. 63 was evaluated in a mouse model transplanted with H460 cells.
Specifically, the compound No. 63 was intraperitoneally administered to mice transplanted with H460 cells at 50 mg/kg, once every two days for a total of 15 days.

inhibition at 40 µM (AIMP2-DX2)	Structure (SMILES)	body weight of the animal during treatment (side effect) (H460 cells [1])	cancer growth inhibitory effect (H460 cells [1]; H460 xenograft)	Cell Viability (% inhibition) (A549) (A549 cells)	body weight of the animals during administration (H460 cells [2])	tumor growth (H460 cells [2]; H460 transplanted mice)
70.3 ± 3.23%	COc1ccc(-c2csc(NC(=O)[C@H](CC(C)C)NS(=O)(=O)c3ccc(C)cc3)n2)cc1 [Compound 55, (S)—N-(4-(4-methoxyphenyl)thiazol-2-yl)-4-methyl-2-(4-methylphenylsulfonamido)pentanamide]	no change in the body weight	about 50%	89.25 ± 2.03%		
	COc1ccc(-c2csc(NC(=O)[C@H](Cc3c[nH]c4ccccc34)NS(=O)(=O)c3ccc(C)cc3)n2)cc1 [Compound 63, (S)-3-(1H-indol-3-yl)-N-(4-(4-methoxyphenyl)thiazol-2-yl)-2-(4-methylphenylsulfonamido)propanamide]			86.53 ± 1.35%	no change in the body weight	significantly inhibited the growth of tumors
